The numbers were not newly measured in patent US12121558B2 (priority 2019, dated 2024), which cites them from elsewhere.

Regarding `O=c1c(O)c(-c2ccc(O)c(O)c2)oc2cc(O)cc(O)c12` [quercetin, Quercetin], the elimination half-life (after oral ingestion of quercetin containing foods or supplements) was 1 to 2 h. Under “in humans, low and highly variable”, the bioavailability is 0-50%.
